Laboratory results taken from patent publication US8134015B2, “Compound inhibiting in vivo phosphorous transport and medicine containing the same” (Kyowa Hakko Kirin Co., Ltd., priority 2003, dated 2012).
pIC50: −log10 of the molar value.

These molecules were tested against T1, rat NaPi-2b (Rattus norvegicus, UniProt Q9JJ09) (assay: Sodium-dependent phosphate uptake of Xenopus oocytes which expressed NaPi-2b (32P)). Conditions: Xenopus oocytes expressing rat NaPi-2b, 32P radioactive phosphorus; read-out: IC50 (phosphate uptake inhibitory activity).
T1 construct: expressed in transfected cells; host or cells: Xenopus oocytes injected with cRNA
T1 sequence (Q9JJ09 1-695): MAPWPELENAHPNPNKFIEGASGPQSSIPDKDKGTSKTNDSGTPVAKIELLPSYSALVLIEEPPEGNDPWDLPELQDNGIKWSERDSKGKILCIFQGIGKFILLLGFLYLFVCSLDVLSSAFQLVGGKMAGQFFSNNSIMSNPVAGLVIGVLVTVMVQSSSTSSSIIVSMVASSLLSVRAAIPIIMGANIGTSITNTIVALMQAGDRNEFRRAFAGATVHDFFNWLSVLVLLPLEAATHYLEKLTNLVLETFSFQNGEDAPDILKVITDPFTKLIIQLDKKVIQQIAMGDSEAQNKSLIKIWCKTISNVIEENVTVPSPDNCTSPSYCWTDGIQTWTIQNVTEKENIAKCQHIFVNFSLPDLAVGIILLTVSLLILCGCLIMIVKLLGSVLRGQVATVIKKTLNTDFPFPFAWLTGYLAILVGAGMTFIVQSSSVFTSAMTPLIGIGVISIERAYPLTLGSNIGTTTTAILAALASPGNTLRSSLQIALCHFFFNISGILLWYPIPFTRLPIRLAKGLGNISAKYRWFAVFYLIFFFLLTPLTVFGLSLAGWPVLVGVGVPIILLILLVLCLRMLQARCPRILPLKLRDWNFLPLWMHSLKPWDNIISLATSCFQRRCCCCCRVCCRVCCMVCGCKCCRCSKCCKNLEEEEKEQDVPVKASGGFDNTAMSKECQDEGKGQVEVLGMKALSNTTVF
Format: cell-based
Summary of the method: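 Oocytes injected with rat NaPi-2b cRNA, cultured 2 d, then 32P uptake measured with compound. Values: % inhibition at 300 and 100 μM, both from one inhibition curve.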
A pIC50 of 5.59 was found for `CCN(CC)CCN(C)Cc1cccc(C(=O)Nc2sc3c(c2C(=O)N/N=C/c2ccc(OCCO)cc2)CCCC3)c1` [Compound 1002, 3-{[(2-Diethylamino-ethyl)-methyl-amino]-methyl}-N-{3-[4-(2-hydroxy-ethoxy)-benzylidene-hydrazinocarbonyl]-4,5,6,7-tetrahydro-benzo[b]thiophen-2-yl}-benzamide] in this work.
A pIC50 of 5.04 was found for `CCN(CC)CCN(C)Cc1cccc(C(=O)Nc2sc3c(c2C(=O)N/N=C(\C)c2cccc(F)c2)CCCC3)c1` [Compound 1003, 3-{[(2-Diethylamino-ethyl)-methyl-amino]-methyl}-N-{3-[1-(3-fluoro-phenyl)-ethylidene-hydrazinocarbonyl]-4,5,6,7-tetrahydro-benzo[b]thiophen-2-yl}-benzamide] in this work.
A pIC50 of 5.20 was found for `O=C(Nc1ccc(Cl)cc1C(=O)N/N=C/c1ccc(Cl)c(C(F)(F)F)c1)c1cnc2ccccc2n1` [Compound 1006, Quinoxaline-2-carboxylic acid[4-chloro-2-(4-chloro-3-trifluoromethyl-benzylidene-hydrazinocarbonyl)-phenyl]-amide] in this work.
A pIC50 of 6.40 was found for `O=C(Nc1ccc(Cl)cc1C(=O)N/N=C/c1cccc(F)c1)c1cccc(CSCC(O)CO)c1` (stereo not shown) [Compound 1007, N-[4-Chloro-2-(3-fluoro-benzylidene-hydrazinocarbonyl)-phenyl]-3-(2,3-dihydroxy-propylsulfanylmethyl)-benzamide] in this work.
A pIC50 of 6.62 was found for `O=C(Nc1ccc(Cl)cc1C(=O)N/N=C/c1ccc(Cl)c(C(F)(F)F)c1)c1cccc(CSCC(O)CO)c1` (stereo not shown) [Compound 1010, N-[4-Chloro-2-(4-chloro-3-trifluoromethyl-benzylidene-hydrazinocarbonyl)-phenyl]-3-(2,3-dihydroxy-propylsulfanylmethyl)-benzamide] in this work.
A pIC50 of 5.89 was found for `COc1ccc(/C=N/NC(=O)c2cc(Cl)ccc2NC(=O)c2cccc(CSCC(O)CO)c2)cc1` (stereo not shown) [Compound 1011, N-[4-Chloro-2-(4-methoxy-benzylidene-hydrazinocarbonyl)-phenyl]-3-(2,3-dihydroxy-propylsulfanylmethyl)-benzamide] in this work.
A pIC50 of 5.72 was found for `O=C(Nc1ccc(Cl)cc1C(=O)N/N=C/c1ccc(OC(F)(F)F)cc1)c1cccc(CSCC(O)CO)c1` (stereo not shown) [Compound 1012, N-[4-Chloro-2-(4-trifluoromethoxy-benzylidene-hydrazinocarbonyl)-phenyl]-3-(2,3-dihydroxy-propylsulfanylmethyl)-benzamide] in this work.
A pIC50 of 5.05 was found for `COCCOc1cc(NC(=O)c2cccc(CSCC(O)CO)c2)c(C(=O)N/N=C/c2cccc(F)c2)cc1OCCOC` (stereo not shown) [Compound 1013, 3-(2,3-Dihydroxy-propylsulfanylmethyl)-N-[2-(3-fluoro-benzylidene-hydrazinocarbonyl)-4,5-bis-(2-methoxy-ethoxy)-phenyl]-benzamide] in this work.
A pIC50 of 4.96 was found for `COCCOc1cc(NC(=O)c2cccc(CSCC(O)CO)c2)c(C(=O)N/N=C/c2ccc(C)c(C)c2)cc1OCCOC` (stereo not shown) [Compound 1015, 3-(2,3-Dihydroxy-propylsulfanylmethyl)-N-[2-(3,4-dimethyl-benzylidene-hydrazinocarbonyl)-4,5-bis-(2-methoxy-ethoxy)-phenyl]-benzamide] in this work.
A pIC50 of 5.03 was found for `COCCOc1cc(NC(=O)c2cccc(CSCC(O)CO)c2)c(C(=O)N/N=C/c2ccc(Cl)c(C(F)(F)F)c2)cc1OCCOC` (stereo not shown) [Compound 1016, N-[2-(4-Chloro-3-trifluoromethyl-benzylidene-hydrazinocarbonyl)-4,5-bis-(2-methoxy-ethoxy)-phenyl]-3-(2,3-dihydroxy-propylsulfanylmethyl)-benzamide] in this work.
A pIC50 of 6.06 was found for `COc1ccc(NC(=O)c2cccc(CSCC(O)CO)c2)c(C(=O)N/N=C/c2cccc(F)c2)c1` (stereo not shown) [Compound 1017, 3-(2,3-Dihydroxy-propylsulfanylmethyl)-N-[2-(3-fluoro-benzylidene-hydrazinocarbonyl)-4-methoxy-phenyl]-benzamide] in this work.
A pIC50 of 6.04 was found for `COc1ccc(NC(=O)c2cccc(CSCC(O)CO)c2)c(C(=O)N/N=C/c2ccc(C)cc2)c1` (stereo not shown) [Compound 1018, 3-(2,3-Dihydroxy-propylsulfanylmethyl)-N-[4-methoxy-2-(4-methyl-benzylidene-hydrazinocarbonyl)-phenyl]-benzamide] in this work.
A pIC50 of 6.39 was found for `COc1ccc(NC(=O)c2cccc(CSCC(O)CO)c2)c(C(=O)N/N=C/c2ccc(C)c(C)c2)c1` (stereo not shown) [Compound 1019, 3-(2,3-Dihydroxy-propylsulfanylmethyl)-N-[2-(3,4-dimethyl-benzylidene-hydrazinocarbonyl)-4-methoxy-phenyl]-benzamide] in this work.
A pIC50 of 5.25 was found for `COc1ccc(/C=N/NC(=O)c2cc(OC)ccc2NC(=O)c2cccc(CSCC(O)CO)c2)cc1` (stereo not shown) [Compound 1021, 3-(2,3-Dihydroxy-propylsulfanylmethyl)-N-[4-methoxy-2-(4-methoxy-benzylidene-hydrazinocarbonyl)-phenyl]-benzamide] in this work.
A pIC50 of 5.49 was found for `CCN(CC)CCN(C)Cc1cccc(C(=O)Nc2ccc(OC)cc2C(=O)N/N=C/c2cccc(F)c2)c1` [Compound 1022, 3-{[(2-Diethylamino-ethyl)-methyl-amino]-methyl}-N-[2-(3-fluoro-benzylidene-hydrazinocarbonyl)-4-methoxy-phenyl]-benzamide] in this work.
A pIC50 of 6.00 was found for `CCN(CC)CCN(C)Cc1cccc(C(=O)Nc2ccc(OC)cc2C(=O)N/N=C/c2ccc(Cl)c(C(F)(F)F)c2)c1` [Compound 1023, N-[2-(4-Chloro-3-trifluoromethyl-benzylidene-hydrazinocarbonyl)-4-methoxy-phenyl]-3-{[(2-diethylamino-ethyl)-methyl-amino]-methyl}-benzamide] in this work.
A pIC50 of 5.40 was found for `CCN(CC)CCN(C)Cc1cccc(C(=O)Nc2ccc(OC)cc2C(=O)N/N=C/c2ccc(OC)cc2)c1` [Compound 1024, 3-{[(2-Diethylamino-ethyl)-methyl-amino]-methyl}-N-[4-methoxy-2-(4-methoxy-benzylidene-hydrazinocarbonyl)-phenyl]-benzamide] in this work.
A pIC50 of 5.24 was found for `CCN(CC)CCN(C)Cc1cccc(C(=O)Nc2ccc(OCCOC)cc2C(=O)N/N=C/c2cccc(F)c2)c1` [Compound 1025, 3-{[(2-Diethylamino-ethyl)-methyl-amino]-methyl}-N-[2-(3-fluoro-benzylidene-hydrazinocarbonyl)-4-(2-methoxy-ethoxy)-phenyl]-benzamide] in this work.
A pIC50 of 5.41 was found for `CCN(CC)CCN(C)Cc1cccc(C(=O)Nc2ccc(OCCOC)cc2C(=O)N/N=C/c2ccc(C)cc2)c1` [Compound 1026, 3-{[(2-Diethylamino-ethyl)-methyl-amino]-methyl}-N-[4-(2-methoxy-ethoxy)-2-(4-methyl-benzylidene-hydrazinocarbonyl)-phenyl]-benzamide] in this work.
A pIC50 of 4.54 was found for `CCN(CC)CCN(C)Cc1cccc(C(=O)Nc2cc(OCCOC)c(OCCOC)cc2C(=O)N/N=C/c2cccc(F)c2)c1` [Compound 1028, 3-{[(2-Diethylamino-ethyl)-methyl-amino]-methyl}-N-[2-(3-fluoro-benzylidene-hydrazinocarbonyl)-4,5-bis-(2-methoxy-ethoxy)-phenyl]-benzamide] in this work.
A pIC50 of 4.46 was found for `CCN(CC)CCN(C)Cc1cccc(C(=O)Nc2cc(OCCOC)c(OCCOC)cc2C(=O)N/N=C/c2ccc(C)cc2)c1` [Compound 1029, N-[4,5-Bis-(2-methoxy-ethoxy)-2-(4-methyl-benzylidene-hydrazinocarbonyl)-phenyl]-3-{[(2-diethylamino-ethyl)-methyl-amino]-methyl}-benzamide] in this work.
A pIC50 of 4.85 was found for `CCN(CC)CCN(C)Cc1cccc(C(=O)Nc2cc(OCCOC)c(OCCOC)cc2C(=O)N/N=C/c2ccc(C)c(C)c2)c1` [Compound 1030, 3-{[(2-Diethylamino-ethyl)-methyl-amino]-methyl}-N-[2-(3,4-dimethyl-benzylidene-hydrazinocarbonyl)-4,5-bis-(2-methoxy-ethoxy)-phenyl]-benzamide] in this work.

Same assay, conditions: phosphate uptake, oocytes expressing rat NaPi-2b; 300 μM, determined from inhibition curve
An inhibition at 300 µM of 34.2% was found for `O=C(Nc1ccc(Cl)cc1C(=O)N/N=C/c1cccc(F)c1)c1cnc2ccccc2n1` [Compound 1004, Quinoxaline-2-carboxylic acid [4-chloro-2-(3-fluoro-benzylidene-hydrazinocarbonyl)-phenyl]-amide] in this work.
An inhibition at 300 µM of 59.1% was found for `Cc1ccc(/C=N/NC(=O)c2cc(Cl)ccc2NC(=O)c2cnc3ccccc3n2)cc1C` [Compound 1005, Quinoxaline-2-carboxylic acid [4-chloro-2-(3,4-dimethyl-benzylidene-hydrazinocarbonyl)-phenyl]-amide] in this work.
An inhibition at 300 µM of 55.2% was found for `COCCOc1cc(NC(=O)c2cccc(CSCC(O)CO)c2)c(C(=O)N/N=C/c2ccc(C)cc2)cc1OCCOC` (stereo not shown) [Compound 1014, N-[4,5-Bis-(2-methoxy-ethoxy)-2-(4-methyl-benzylidene-hydrazinocarbonyl)-phenyl]-3-(2,3-dihydroxy-propylsulfanylmethyl)-benzamide] in this work.
